In this assay the target is T1, Recombinant human HSP90a (Homo sapiens, UniProt P07900).
T1 construct: host or cells: E. coli
As to the kind of experiment: HSP90 radioligand filter binding test ([3H]17AAG competition). The conditions noted are these: [3H]17AAG 0.08 μM, HSP90 1.5 μg/assay, 22° C., 30 min; read-out: IC50 (HSP90 inhibition). The text has this: Test Method for the Measurement of HSP90 Inhibitors
The binding of geldanamycin or 17-allylamino-17-demethoxygeldanamycin (17AAG) to HSP90 and competitive inhibition thereof can be utilised in order to determine the inhibitory activity of the compounds according to the invention (Carreras et al. 2003, Chiosis et al. 2002).
In the specific case, a radioligand filter binding test is used. The radioligand used here is tritium-labelled 17-allylaminogeldanamycin, [3H]17AAG. This filter binding test allows a targeted search for inhibitors which interfere with the ATP binding site.
Recombinant human HSP90a (E. coli expressed, 95% purity);
[3H]17AAG (17-allylaminogeldanamycin, [allylamino-2,3-^3H. Specific activity: 1.11×10^12 Bq/mmol (Moravek, MT-1717);
HEPES filter buffer (50 mM HEPES, pH 7.0, 5 mM MgCl2, BSA 0.01%)
Multiscreen FB (1 μm) filter plate (Millipore, MAFBNOB 50).
The 96-well microtitre filter plates are firstly irrigated and coated with 0.1% of polyethylenimine.
The test is carried out under the following conditions:
Reaction temperature 22° C.
Reaction time: 30 min., shaking at 800 rpm
50 mM HEPES HCl, pH 7.0, 5 mM MgCl2, 0.01% (w/v) of BSA
At the end of the reaction, the supernatant in the filter plate is removed by suction with the aid of a vacuum manifold (Multiscreen Separation System, Millipore), and the filter is washed twice.
The filter plates are then measured in a beta counter (Microbeta, Wallac) with scintillator (Microscint 20, Packard).
“% of control” is determined from the “counts per minutes” values, and the IC-50 value of a compound is calculated therefrom.

As a reminder, the IC50 is the midpoint of a concentration-inhibition curve. On to `CN(C)CCNS(=O)(=O)c1ccccc1-c1ccc2nc(N)nc(C(=O)N3Cc4ccccc4C3)c2c1` [Compound A3], for which the IC50 was in the range of 0.01 to 1 µM.

For the molecule `CC1CCCN1S(=O)(=O)c1ccccc1-c1ccc2nc(N)nc(C(=O)N3Cc4ccccc4C3)c2c1` (stereo not shown) [Compound A19, {2-Amino-6-[2-(2-methylpyrrolidine-1-sulfonyl)phenyl]quinazolin-4-yl}-(1,3-dihydroisoindol-2-yl)methanone], the IC50 fell in the range of 0.01 to 1 µM. The value for `C[N+]1([O-])CCN(S(=O)(=O)c2ccccc2-c2ccc3nc(N)nc(C(=O)N4Cc5ccccc5C4)c3c2)CC1` [Compound A7] was 0.01 to 1 µM; that for `CN(Cc1cncn1C)S(=O)(=O)c1ccccc1-c1ccc2nc(N)nc(C(=O)N3Cc4ccccc4C3)c2c1` [Compound A18] was 0.01 to 1 µM; that for `CC1CCCN1C(=O)c1ccccc1-c1ccc2nc(N)nc(C(=O)N3Cc4ccccc4C3)c2c1` (stereo not shown) [Compound A42, {2-Amino-6-[2-(2-methylpyrrolidine-1-carbonyl)phenyl]quinazolin-4-yl}-(1,3-dihydroisoindol-2-yl)methanone] was 0.01 to 1 µM. Consider `CC(C)(C)NC(=O)c1ccccc1-c1ccc2nc(N)nc(C(=O)N3Cc4ccccc4C3)c2c1` [Compound A47, 2-[2-Amino-4-(1,3-dihydroisoindole-2-carbonyl)quinazolin-6-yl]-N-tert-butylbenzamide], for which the IC50 was 0.01 to 1 µM. The value for `Nc1nc(C(=O)N2Cc3ccccc3C2)c2cc(-c3ccccc3S(=O)(=O)n3ccnc3)ccc2n1` [Compound A27, {2-Amino-6-[2-(imidazole-1-sulfonyl)phenyl]quinazolin-4-yl}-(1,3-dihydroisoindol-2-yl)methanone] was 1 to 10 µM; that for `CC(C)(C)NC(=O)c1cc(F)c(F)cc1-c1ccc2nc(N)nc(C(=O)N3Cc4ccccc4C3)c2c1` [Compound A81, 2-[2-Amino-4-(1,3-dihydroisoindole-2-carbonyl)quinazolin-6-yl]-N-tert-butyl-4,5-difluorobenzamide] was 0.01 to 1 µM; that for `CCNC(=O)c1ccccc1-c1ccc2nc(N)nc(C(=O)N3Cc4ccccc4C3)c2c1` [Compound A41, 2-[2-Amino-4-(1,3-dihydroisoindole-2-carbonyl)quinazolin-6-yl]-N-ethylbenzamide] was 0.01 to 1 µM. Then `CN(CCO)S(=O)(=O)c1ccccc1-c1ccc2nc(N)nc(C(=O)N3Cc4ccccc4C3)c2c1` [Compound A8], with 0.01 to 1 µM; and `CCNC(=O)c1cc(OC)c(OC)cc1-c1ccc2nc(N)nc(C(=O)N3Cc4ccccc4C3)c2c1` [Compound A84, 2-[2-Amino-4-(1,3-dihydroisoindole-2-carbonyl)quinazolin-6-yl]-N-ethyl-4,5-dimethoxybenzamide], with more than 10 µM. Then `CCN(CCN(C)C)C(=O)c1ccccc1-c1ccc2nc(N)nc(C(=O)N3Cc4ccccc4C3)c2c1` [Compound A55], with 0.01 to 1 µM; and `CNS(=O)(=O)c1ccccc1-c1ccc2nc(N)nc(C(=O)N3Cc4ccccc4C3)c2c1` [Compound A6, 2-[2-Amino-4-(1,3-dihydroisoindole-2-carbonyl)quinazolin-6-yl]-N-methylbenzenesulfonamide], with 0.01 to 1 µM; and `Nc1nc(C(=O)N2Cc3ccccc3C2)c2cc(-c3ccccc3S(=O)(=O)NCCO)ccc2n1` [Compound A11, 2-[2-Amino-4-(1,3-dihydroisoindole-2-carbonyl)quinazolin-6-yl]-N-(2-hydroxyethyl)benzenesulfonamide], with 0.01 to 1 µM. Regarding `CN(C1CC1)S(=O)(=O)c1ccccc1-c1ccc2nc(N)nc(C(=O)N3Cc4ccccc4C3)c2c1` [Compound A65, 2-[2-amino-4-(1,3-dihydroisoindole-2-carbonyl)quinazolin-6-yl]-N-cyclopropyl-N-methylbenzenesulfonamide], the IC50 was 0.01 to 1 µM. Then `CCN(CC)C(=O)c1ccccc1-c1ccc2nc(N)nc(C(=O)N3Cc4ccccc4C3)c2c1` [Compound A40, 2-[2-Amino-4-(1,3-dihydroisoindole-2-carbonyl)quinazolin-6-yl]-N,N-diethylbenzamide], with 0.01 to 1 µM; and `Nc1nc(C(=O)N2Cc3ccccc3C2)c2cc(-c3ccccc3S(N)(=O)=O)ccc2n1` [Compound A2, 2-[2-amino-4-(1,3-dihydroisoindole-2-carbonyl)quinazolin-6-yl]-benzenesulfonamide], with 0.01 to 1 µM. With `CCN(CCN(C)C)C(=O)c1cc(F)c(F)cc1-c1ccc2nc(N)nc(C(=O)N3Cc4ccccc4C3)c2c1` [Compound A76, 2-[2-Amino-4-(1,3-dihydroisoindole-2-carbonyl)quinazolin-6-yl]-N-(2-dimethylaminoethyl)-N-ethyl-4,5-difluorobenzamide], the IC50 fell in the range of 0.01 to 1 µM. The value for `Nc1nc(C(=O)N2Cc3ccccc3C2)c2cc(-c3ccccc3C(=O)N3CCC(F)(F)C3)ccc2n1` [Compound A49, {2-Amino-6-[2-(3,3-difluoropyrrolidine-1-carbonyl)phenyl]quinazolin-4-yl}-(1,3-dihydroisoindol-2-yl)methanone] was 0.01 to 1 µM; that for `CN(C(=O)c1ccccc1-c1ccc2nc(N)nc(C(=O)N3Cc4ccccc4C3)c2c1)C(C)(C)C` [Compound A56, 2-[2-Amino-4-(1,3-dihydroisoindole-2-carbonyl)quinazolin-6-yl]-N-tert-butyl-N-methylbenzamide] was 0.01 to 1 µM; that for `Nc1nc(C(=O)N2Cc3ccccc3C2)c2cc(-c3ccccc3C(=O)N(CCO)CCO)ccc2n1` [Compound A73] was 0.01 to 1 µM. Then `C[C@@H]1CCCN1C(=O)c1ccccc1-c1ccc2nc(N)nc(C(=O)N3Cc4ccccc4C3)c2c1` [Compound A63], with 0.01 to 1 µM; and `CCN(CC)C(=O)c1ccc(Cl)cc1-c1ccc2nc(N)nc(C(=O)N3Cc4ccccc4C3)c2c1` [Compound A87, 2-[2-Amino-4-(1,3-dihydroisoindole-2-carbonyl)quinazolin-6-yl]-4-chloro-N,N-diethylbenzamide], with 0.01 to 1 µM; and `CCN(CCO)C(=O)c1cc(F)c(F)cc1-c1ccc2nc(N)nc(C(=O)N3Cc4ccccc4C3)c2c1` [Compound A75, 2-[2-Amino-4-(1,3-dihydroisoindole-2-carbonyl)quinazolin-6-yl]-N-ethyl-4,5-difluoro-N-(2-hydroxyethyl)benzamide], with 0.01 to 1 µM. Then `CNCCN(C)S(=O)(=O)c1ccccc1-c1ccc2nc(N)nc(C(=O)N3Cc4ccccc4C3)c2c1` [Compound A13, 2-[2-Amino-4-(1,3-dihydroisoindole-2-carbonyl)quinazolin-6-yl]-N-methyl-N-(2-methylaminoethyl)benzenesulfonamide], with 0.01 to 1 µM. In the case of `CN(C)C(=O)c1ccccc1-c1ccc2nc(N)nc(C(=O)N3Cc4ccccc4C3)c2c1` [Compound A38], the IC50 is 0.01 to 1 µM. Then `NCCNS(=O)(=O)c1ccccc1-c1ccc2nc(N)nc(C(=O)N3Cc4ccccc4C3)c2c1` [Compound A14, 2-[2-Amino-4-(1,3-dihydroisoindole-2-carbonyl)quinazolin-6-yl]-N-(2-aminoethyl)benzenesulfonamide], with 0.01 to 1 µM; and `Cc1cn(S(=O)(=O)c2ccccc2-c2ccc3nc(N)nc(C(=O)N4Cc5ccccc5C4)c3c2)cn1` [Compound A30, {2-Amino-6-[2-(4-methylimidazole-1-sulfonyl)phenyl]quinazolin-4-yl}-(1,3-dihydroisoindol-2-yl)methanone], with 0.01 to 1 µM.

The values are drawn from US8546565B2, “Quinazolinamide derivatives” (Merck Patent Gesellschaft, priority 2008, dated 2013).
